# Laboratory results taken from patent US20040082664A1, “Derivatives of hydroxyphenyl, a method for preparing thereof and their pharmaceutical composition” (priority 2002, published 2004).
# Legend:
# [1] = test system: collagen-induced rheumatoid arthritis; experiment: Inhibition of collagen-induced rheumatoid arthritis in DBA1/LacJ mice; type: in vivo, mouse; parameters: key: sum of 4 leg scores (0-4 each), max 16; conditions: 50 mg/kg/day i.p. daily; day 15 after treatment (day 36 after primary immunization); sum of scores of four legs, maximum 16; mean ± standard deviation
# Protocol: After 2 weeks, booster immunization was carried out with 50 μg C II/IFA. From the 3rd week after primary immunization, compounds of the present invention were injected daily into peritoneal cavities of 6-8 mice per group for 15-20 days.
# The vehicle control groups were injected daily with 100 μl of 5% ethanol-olive oil mixture in total 15-20 times. Widely used anti-rheumatic drug, Methotrexate, was dissolved in PBS and then injected to mice at 1 mg/kg/day every other day in total 8-10 times. Meanwhile, the compounds of the invention were dissolved in ethanol and then mulsified in olive oil, in which the final ethanol concentration was adjusted to 5% and the compounds of this invention was 50 mg/kg/day.
# From the 3rd week after primary immunization, the extent of edema and the joint swelling was monitored everyday to determine arthritic index. Arthitic index is the sum of the arthritic scores of all 4 legs and, therefore, maximum arthritis index of 16 can be achieved (e.g., [4 (maximum arthritic score)/leg]×[4 legs/mouse]=16 (maximum arthritis index/mouse)). […] was presented by the mean arthritis index±standard deviation of each mouse group.
# IL-2 promoter = IL-2 promoter luciferase reporter assay in anti-CD3 activated Jurkat cells; type: cell-based; conditions: Homo sapiens, TCR-induced (anti-CD3) IL-2 promoter luciferase, 2 h pre-incubation
# Protocol: In order to confirm whether the compounds of the invention can pass through a cell membrane and inhibit the expression of IL-2 gene leading to T-cell proliferation, the present inventors firstly confirmed T-cell activity by detecting the activity of the luciferase fused on the downstream of IL-2 promoter.
# To investigate the activity of IL-2 promoter, Jurkat cells (1×10^6) were transfected with a IL-2 reporter plasmids using Superfect™ (Qiagen Inc.). After 24 hours of transfection, Jurkat cells were pre-incubated with compounds of various concentrations (1 uM-50 uM) for 2 hours and further cultured on 35mm plate pre-coated with 5 ug/ml of anti-CD3 antibody, resulting in T cell activation. The luciferase activity was measured using Berthold luminometer LB953. The IC50 (50% inhibition concentration) of the compounds of the invention on TCR-induced IL-2 promoter activation are shown in Table 2.
# skin allograft rejection = experiment: Inhibition of skin allograft rejection (Balb/c tail skin grafted onto C57BL/6 mouse); type: in vivo; conditions: 100 mg/kg/day into abdominal cavity from day of transplantation until complete rejection
# Protocol: For the experiment, allogeneic Balb/c(H-2d) mouse-tail skin was grafted onto C57BL/6(H-2b) mouse. Generally 7-8 mice were assigned to each group. All the phenyl derivatives were dissolved in 100% ethanol, mixed with olive oil, and adjusted to the final concentration of ethanol therein less than 5%. […] Meanwhile, for the group of untreated mice, an olive oil-ethanol mixture was administered as a control. The grafted skin was monitored daily after the removal of the bandage on days 7-9. Rejection was defined as more than 80% necrosis of the graft epithelium.
# GST-fused lck SH2 domain = target: T1, GST-fused lck SH2 domain (Homo sapiens, UniProt P06239); experiment: Inhibition of in vitro binding of lck SH2 domain to its cognate pYEEI peptide (BIAcore 2000); conditions: IC50 class for inhibition of GST-lckSH2 binding to immobilized biotinylated […]pYEEIPI peptide; read-out: BOND DEGREE WITH SH2 OF 1ck
# T1 construct: GST (Glutathione transferase)-fused lck SH2 domain
# T1 sequence (P06239 127-224 limits assumed): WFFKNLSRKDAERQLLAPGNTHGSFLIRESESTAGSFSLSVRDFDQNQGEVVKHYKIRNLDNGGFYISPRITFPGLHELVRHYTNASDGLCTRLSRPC
# Protocol: The present inventors investigated the inhibition activity of phenyl derivatives on the interaction of GST (Glutathione transferase)-fused lck SH2 domain and a peptide […]pYEEIPI (comprising the sequence PYEEI, a cognate peptide of Lck SH2) by using a real time sensorgram (BIAcore 2000).
# At first, the biotinylated peptide was fixed on the surface of BIAcore analysis apparatus and then GST-lckSH2 protein was injected over the surface of the immobilized peptides. The binding of GST-lck SH2 with the peptide is represented as the resonance units (referred as “RU” hereinafter) and 1,000 RU corresponds to a change in surface concentration of 1 ng/mm^2. The binding of GST-lck with the fixed peptide causes the change of refractory index, leading to the increase of RU. In the mean time, when the binding of GST-lck with the fixed peptide is inhibited, RU decreases. Those results are represented in Table 1.
SMILES,Arthritis index [1],IC50 (IL-2 promoter) [µM],Survival time of skin graft tissue (days ± variance) (skin allograft rejection) [days],IC50 (GST-fused lck SH2 domain) [µM]
"CCCOC(=O)[C@H](Cc1ccc(O)c(O)c1)NC(=O)/C=C/c1ccc(O)c(O)c1 [Example 11, 3-(3,4-dihydroxy-phenyl)-(S)-2-[3-trans-(3,4-dihydroxy-phenyl)-acryloylamino]-propionic acid propyl ester]",6.1 ± 1.3,4.9,14.4 ± 0.9,10 to 25
"O=C(/C=C/c1ccc(O)c(O)c1)N[C@H](Cc1ccc(O)cc1)C(=O)O [Example 46, (R)-2-[trans-3-(3,4-dihydroxy-phenyl)-acryloylamino]-3-(4-hydroxy-phenyl)-propionic acid]",6.1 ± 0.7,19,11.9 ± 0.9,25 to 50
"O=C(/C=C/c1ccc(O)c(O)c1)N[C@@H](Cc1ccc(O)c(O)c1)C(=O)O [Example 9, 3-(3,4-dihydroxy-phenyl)-(S)-2-[3-trans-(3,4-dihydroxy-phenyl)-acryloylamino]-propionic acid]",7.2 ± 1.2,18.2,14.8 ± 0.9,25 to 50
"CN(CCc1ccc(O)c(O)c1)C(=O)/C=C/c1ccc(O)c(O)c1 [Example 44, 3-(3,4-dihydroxy-phenyl)-N-[2-(3,4-dihydroxy-phenyl)-ethyl]-N-methyl-acrylamide]",6.8 ± 1.0,17.4,12.5 ± 0.9,25 to 50
"COC(=O)[C@@H](Cc1ccc(O)c(O)c1)OC(=O)/C=C/c1ccc(O)c(O)c1 [Example 54, (R)-3-(3,4-dihydroxy-phenyl)-acrylic acid 2-(3,4-dihydroxy-phenyl)-1-methoxycarbonyl ethyl ester]",3.5 ± 1.1,4.5,13 ± 0.9,10 to 25
"CCCOC(=O)[C@@H](Cc1ccc(O)c(O)c1)OC(=O)/C=C/c1ccc(O)c(O)c1 [Example 55, (R)-3-(3,4-Dihydroxy-phenyl)-acrylic acid 2-(3,4-dihydroxy-phenyl)-1-propoxycarbonyl ethyl ester]",4.8 ± 0.8,5.7,12.1 ± 0.8,10 to 25
"NC(=O)[C@H](Cc1ccc(O)c(O)c1)NC(=S)/C=C/c1ccc(O)c(O)c1 [Example 28, 3-(3,4-dihydroxy-phenyl)-(S)-2-[3-trans-(3,4-dihydroxy-phenyl)-thioacryloylamino]-propioneamide]",5.8 ± 0.6,14.1,13.9 ± 0.9,10 to 25
"CC(C)(C)OC(=O)[C@H](Cc1ccc(O)c(O)c1)NC(=O)/C=C/c1ccc(O)c(O)c1 [Example 13, 3-(3,4-dihydroxy-phenyl)-(S)-2-[3-trans-(3,4-dihydroxy-phenyl)-acryloylamino]-propionic acid tert-butyl ester]",6.9 ± 1.1,7.2,14.5 ± 0.6,25 to 50
"COC(=O)C(Cc1ccc(O)c(O)c1)NC(=O)NCc1ccc(O)c(O)c1 (stereo not drawn) [Example 49, 2-[3-(3,4-dihydroxy-benzyl)-ureido]-3-(3,4-dihydroxy-phenyl)-propionic acid methyl ester]",5.1 ± 0.9,20.4,13 ± 1.5,10 to 25
"CC(C)NC(=O)[C@@H](Cc1ccc(O)c(O)c1)OC(=O)/C=C/c1ccc(O)c(O)c1 [Example 58, (R)-3-(3,4-Dihydroxy-phenyl)-acrylic acid 2-(3,4-dihydroxy-phenyl)-1-isopropylcarbamoyl ethyl ester]",4.8 ± 0.7,5.4,12.5 ± 1.3,25 to 50
"O=C(/C=C/c1ccc(O)c(O)c1)N[C@H](Cc1ccc(O)c(O)c1)C(=O)O [Example 2, 3-(3,4-dihydroxy-phenyl)-(R)-2-[3-trans-(3,4-dihydroxy-phenyl)-acryloylamino]-propionic acid]",7.2 ± 1.5,15,14.8 ± 0.5,< 10
"O=C(O)[C@H](Cc1ccc(O)c(O)c1)NC(=S)/C=C/c1ccc(O)c(O)c1 [Example 23, 3-(3,4-dihydroxy-phenyl)-(S)-2-[3-trans-(3,4-dihydroxy-phenyl)-thioacryloylamino]-propionic acid]",6.7 ± 0.8,16,13.2 ± 0.8,25 to 50
"CN(C(=O)/C=C/c1ccc(O)c(O)c1)[C@@H](Cc1ccc(O)c(O)c1)C(=O)OC(C)(C)C [Example 41, 3-(3,4-dihydroxy-phenyl)-(S)-2-{[3-trans-(3,4-dihydroxy-phenyl)-acryloyl]-methyl-amino}-propionic acid tert-butyl ester]",6.7 ± 1.6,15.7,13.7 ± 0.6,25 to 50
"CC(C)(C)OC(=O)[C@H](Cc1ccc(O)c(O)c1)NC(=S)/C=C/c1ccc(O)c(O)c1 [Example 27, 3-(3,4-dihydroxy-phenyl)-(S)-2-[3-trans-(3,4-dihydroxy-phenyl)-thioacryloylamino]-propionic acid tert-butyl ester]",6.6 ± 1.1,20.1,12.3 ± 0.6,25 to 50
"COC(=O)[C@@H](Cc1ccc(O)c(O)c1)NC(=O)CCc1ccc(O)c(O)c1 [Example 52, 3-(3,4-dihydroxy-phenyl)-2-[3-(3,4-dihydroxy-phenyl)-propionylamino]-propionic acid methyl ester]",4.0 ± 0.7,21,13.4 ± 1.2,10 to 25
"NC(=O)[C@@H](Cc1ccc(O)c(O)c1)OC(=O)/C=C/c1ccc(O)c(O)c1 [Example 57, (R)-3-(3,4-Dihydroxy-phenyl)-acrylic acid 2-(3,4-dihydroxy-phenyl)-1-carbamoyl ethyl ester]",4.5 ± 1.2,5.2,13.1 ± 0.7,25 to 50
"CC(C)OC(=O)[C@H](Cc1ccc(O)c(O)c1)NC(=O)/C=C/c1ccc(O)c(O)c1 [Example 12, 3-(3,4-dihydroxy-phenyl)-(S)-2-[3-trans-(3,4-dihydroxy-phenyl)-acryloylamino]-propionic acid isopropyl ester]",5.1 ± 0.7,9.5,15.7 ± 0.8,10 to 25
"O=C(/C=C/c1ccc(O)c(O)c1)N[C@@H](Cc1ccc(O)cc1)C(=O)O [Example 48, (S)-2-[trans-3-(3,4-dihydroxy-phenyl)-acryloylamino]-3-(4-hydroxy-phenyl)-propionic acid]",7.1 ± 0.4,22.3,12 ± 1.6,25 to 50
